In patent US11168086B2, “Methods of synthesizing pyrazine compounds” (Hoffmann-La Roche Inc., priority 2015, dated 2021):

System: HBV
Test: HBV inhibition assay: anti-HBV activity in vitro in HepG2.2.15 cells (extracellular HBV DNA by qPCR)
Format: cell-based
Conditions: Hepatitis B virus, 120 h, five days after compound treatment, extracellular HBV DNA in culture supernatant by qPCR, concentration at which HBV replication is inhibited by 50%
Procedure, shortened: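 HepG2.2.15 cells (stably carrying HBV genome) treated with half-log serially diluted compounds at 0.5% DMSO final for five days. Extracellular HBV DNA in supernatant quantified by qPCR after Proteinase K digestion; EC50 is concentration giving 50% inhibition of replication.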

C[C@H]1Cn2ncc(N3CC(c4nccs4)CC3=O)c2CN1C(=O)Nc1cc(F)c(F)c(F)c1 (stereo partly drawn) [Example 291, (6S)-6-methyl-3-(2-oxo-4-thiazol-2-yl-pyrrolidin-1-yl)-N-(3,4,5-trifluorophenyl)-6,7-dihydro-4H-pyrazolo[1,5-a]pyrazine-5-carboxamide]
EC50: 7 nM

C[C@H]1Cn2ncc(N3CCCOC3=O)c2CN1C(=O)Nc1cc(F)c(F)c(F)c1 [Example 292, (6S)-6-methyl-3-(2-oxo-1,3-oxazinan-3-yl)-N-(3,4,5-trifluorophenyl)-6,7-dihydro-4H-pyrazolo[1,5-a]pyrazine-5-carboxamide]
EC50: 48 nM

C[C@H]1Cn2ncc(N3CC(C)(C)COC3=O)c2CN1C(=O)Nc1cc(F)c(F)c(F)c1 [Example 294, (6S)-3-(5,5-dimethyl-2-oxo-1,3-oxazinan-3-yl)-6-methyl-N-(3,4,5-trifluorophenyl)-6,7-dihydro-4H-pyrazolo[1,5-a]pyrazine-5-carboxamide]
EC50: 13 nM

COCC1CC(=O)N(c2cnn3c2CN(C(=O)Nc2ccc(F)c(Cl)c2)[C@@H](C)C3)C1 (stereo partly drawn) [Example 295, (6S)—N-(3-chloro-4-fluoro-phenyl)-3-[4-(methoxymethyl)-2-oxo-pyrrolidin-1-yl]-6-methyl-6,7-dihydro-4H-pyrazolo[1,5-a]pyrazine-5-carboxamide]
EC50: 33 nM

C[C@H]1Cn2ncc(N3CC4(CCOCC4)CC3=O)c2CN1C(=O)Nc1ccc(F)c(Cl)c1 [Example 296, (6S)—N-(3-chloro-4-fluoro-phenyl)-6-methyl-3-(3-oxo-8-oxa-2-azaspiro[4.5]decan-2-yl)-6,7-dihydro-4H-pyrazolo[1,5-a]pyrazine-5-carboxamide]
EC50: 30 nM

CC1CCN(c2cnn3c2CN(C(=O)Nc2ccc(F)c(Cl)c2)[C@@H](C)C3)C1=O (stereo partly drawn) [Example 297, (6S)—N-(3-chloro-4-fluoro-phenyl)-6-methyl-3-(3-methyl-2-oxo-pyrrolidin-1-yl)-6,7-dihydro-4H-pyrazolo[1,5-a]pyrazine-5-carboxamide]
EC50: 68 nM

C[C@H]1Cn2ncc(N3CC(CO)CC3=O)c2CN1C(=O)Nc1ccc(F)c(Cl)c1 (stereo partly drawn) [Example 298, (6S)—N-(3-chloro-4-fluoro-phenyl)-3-[4-(hydroxymethyl)-2-oxo-pyrrolidin-1-yl]-6-methyl-6,7-dihydro-4H-pyrazolo[1,5-a]pyrazine-5-carboxamide]
EC50: 104 nM

COCC1CC(=O)N(c2cnn3c2CN(C(=O)Nc2cc(F)c(F)c(F)c2)[C@@H](C)C3)C1 (stereo partly drawn) [Example 299, (6S)-3-[4-(methoxymethyl)-2-oxo-pyrrolidin-1-yl]-6-methyl-N-(3,4,5-trifluorophenyl)-6,7-dihydro-4H-pyrazolo[1,5-a]pyrazine-5-carboxamide]
EC50: 80 nM

CCC1CC(=O)N(c2cnn3c2CN(C(=O)Nc2ccc(F)c(Cl)c2)[C@@H](C)C3)C1 (stereo partly drawn) [Example 302, (6S)—N-(3-chloro-4-fluoro-phenyl)-3-(4-ethyl-2-oxo-pyrrolidin-1-yl)-6-methyl-6,7-dihydro-4H-pyrazolo[1,5-a]pyrazine-5-carboxamide]
EC50: 20 nM

C[C@H]1Cn2ncc(N3CC4(CCOC4)CC3=O)c2CN1C(=O)Nc1ccc(F)c(Cl)c1 (stereo partly drawn) [Example 303, (6S)—N-(3-chloro-4-fluoro-phenyl)-6-methyl-3-(8-oxo-2-oxa-7-azaspiro[4.4]nonan-7-yl)-6,7-dihydro-4H-pyrazolo[1,5-a]pyrazine-5-carboxamide]
EC50: 81 nM

C[C@H]1Cn2ncc(N3CC(c4ccccc4)CC3=O)c2CN1C(=O)Nc1cc(F)c(F)c(F)c1 (stereo partly drawn) [Example 309, (6S)-6-methyl-3-(2-oxo-4-phenyl-pyrrolidin-1-yl)-N-(3,4,5-trifluorophenyl)-6,7-dihydro-4H-pyrazolo[1,5-a]pyrazine-5-carboxamide]
EC50: 5 nM

C[C@H]1Cn2ncc(N3CC(N(C)C(=O)c4ncco4)CC3=O)c2CN1C(=O)Nc1cc(F)c(F)c(F)c1 (stereo partly drawn) [Example 318, N-methyl-N-[1-[(6S)-6-methyl-5-[(3,4,5-trifluorophenyl)carbamoyl]-6,7-dihydro-4H-pyrazolo[1,5-a]pyrazin-3-yl]-5-oxo-pyrrolidin-3-yl]oxazole-2-carboxamide]
EC50: 45 nM

CC1CN(c2cnn3c2CN(C(=O)Nc2ccc(F)c(Cl)c2)[C@@H](C)C3)C(=O)O1 (stereo partly drawn) [Example 321, (6S)—N-(3-chloro-4-fluoro-phenyl)-6-methyl-3-(5-methyl-2-oxo-oxazolidin-3-yl)-6,7-dihydro-4H-pyrazolo[1,5-a]pyrazine-5-carboxamide]
EC50: 47 nM

CC1CN(c2cnn3c2CN(C(=O)Nc2ccc(F)c(Cl)c2)[C@@H](C)C3)C(=O)N1 (stereo partly drawn) [Example 326, (6S)—N-(3-chloro-4-fluoro-phenyl)-6-methyl-3-(4-methyl-2-oxo-imidazolidin-1-yl)-6,7-dihydro-4H-pyrazolo[1,5-a]pyrazine-5-carboxamide]
EC50: 46 nM

C[C@H]1Cn2ncc(N3CC(c4ccccc4)NC3=O)c2CN1C(=O)Nc1cc(F)c(F)c(F)c1 (stereo partly drawn) [Example 329, (6S)-6-methyl-3-(2-oxo-4-phenyl-imidazolidin-1-yl)-N-(3,4,5-trifluorophenyl)-6,7-dihydro-4H-pyrazolo[1,5-a]pyrazine-5-carboxamide]
EC50: 4 nM

C[C@H]1Cn2ncc(N3CC4(CC4)OC3=O)c2CN1C(=O)Nc1cc(F)c(F)c(F)c1 [Example 331, (6S)-6-methyl-3-(5-oxo-4-oxa-6-azaspiro[2.4]heptan-6-yl)-N-(3,4,5-trifluorophenyl)-6,7-dihydro-4H-pyrazolo[1,5-a]pyrazine-5-carboxamide]
EC50: 12 nM

C[C@H]1Cn2ncc(N3CC4(CCC4)OC3=O)c2CN1C(=O)Nc1cc(F)c(F)c(F)c1 [Example 332, (6S)-6-methyl-3-(6-oxo-5-oxa-7-azaspiro[3.4]octan-7-yl)-N-(3,4,5-trifluorophenyl)-6,7-dihydro-4H-pyrazolo[1,5-a]pyrazine-5-carboxamide]
EC50: 11 nM

COC(=O)N1CC2(CC(=O)N(c3cnn4c3CN(C(=O)Nc3cc(F)c(F)c(F)c3)[C@@H](C)C4)C2)C1 [Example 333, methyl 6-[(6S)-6-methyl-5-[(3,4,5-trifluorophenyl)carbamoyl]-6,7-dihydro-4H-pyrazolo[1,5-a]pyrazin-3-yl]-7-oxo-2,6-diazaspiro[3.4]octane-2-carboxylate]
EC50: 46 nM

CCOC(=O)N1CC2(CC(=O)N(c3cnn4c3CN(C(=O)Nc3cc(F)c(F)c(F)c3)[C@@H](C)C4)C2)C1 [Example 334, ethyl 6-[(6S)-6-methyl-5-[(3,4,5-trifluorophenyl)carbamoyl]-6,7-dihydro-4H-pyrazolo[1,5-a]pyrazin-3-yl]-7-oxo-2,6-diazaspiro[3.4]octane-2-carboxylate]
EC50: 22 nM

C[C@H]1Cn2ncc(N3CC4(CC3=O)CN(C(=O)c3ncco3)C4)c2CN1C(=O)Nc1cc(F)c(F)c(F)c1 [Example 336, (6S)-6-methyl-3-[2-(oxazole-2-carbonyl)-7-oxo-2,6-diazaspiro[3.4]octan-6-yl]-N-(3,4,5-trifluorophenyl)-6,7-dihydro-4H-pyrazolo[1,5-a]pyrazine-5-carboxamide]
EC50: 66 nM

C[C@H]1Cn2ncc(N3CC4(CC3=O)CN(c3ncccn3)C4)c2CN1C(=O)Nc1cc(F)c(F)c(F)c1 [Example 337, (6S)-6-methyl-3-(7-oxo-2-pyrimidin-2-yl-2,6-diazaspiro[3.4]octan-6-yl)-N-(3,4,5-trifluorophenyl)-6,7-dihydro-4H-pyrazolo[1,5-a]pyrazine-5-carboxamide]
EC50: 15 nM

C[C@H]1Cn2ncc(N3C(=O)Cc4ccccc43)c2CN1C(=O)Nc1cc(F)c(F)c(F)c1 [Example 338, (6S)-6-methyl-3-(2-oxoindolin-1-yl)-N-(3,4,5-trifluorophenyl)-6,7-dihydro-4H-pyrazolo[1,5-a]pyrazine-5-carboxamide]
EC50: 14 nM

C[C@H]1Cn2ncc(-c3ncc(F)cn3)c2CN1C(=O)Nc1cc(F)c(F)c(F)c1 [Example 341, (6S)-3-(5-fluoropyrimidin-2-yl)-6-methyl-N-(3,4,5-trifluorophenyl)-6,7-dihydro-4H-pyrazolo[1,5-a]pyrazine-5-carboxamide]
EC50: 40 nM

C[C@H]1Cn2ncc(-n3cc(CO)cn3)c2CN1C(=O)Nc1cc(F)c(F)c(F)c1 [Example 342, (6S)-3-[4-(hydroxymethyl)pyrazol-1-yl]-6-methyl-N-(3,4,5-trifluorophenyl)-6,7-dihydro-4H-pyrazolo[1,5-a]pyrazine-5-carboxamide]
EC50: 41 nM

C[C@H]1Cn2ncc(N3CC(c4ccccc4)OC3=O)c2CN1C(=O)Nc1cc(F)c(F)c(F)c1 (stereo partly drawn) [Example 344, (6S)-6-methyl-3-(2-oxo-5-phenyl-oxazolidin-3-yl)-N-(3,4,5-trifluorophenyl)-6,7-dihydro-4H-pyrazolo[1,5-a]pyrazine-5-carboxamide]
EC50: 7 nM

C[C@H]1Cn2ncc(N3CC(c4ccccn4)OC3=O)c2CN1C(=O)Nc1cc(F)c(F)c(F)c1 (stereo partly drawn) [Example 345, (6S)-6-methyl-3-[2-oxo-5-(2-pyridyl)oxazolidin-3-yl]-N-(3,4,5-trifluorophenyl)-6,7-dihydro-4H-pyrazolo[1,5-a]pyrazine-5-carboxamide]
EC50: 17 nM

C[C@H]1Cn2ncc(N3CC(c4ccncc4)OC3=O)c2CN1C(=O)Nc1cc(F)c(F)c(F)c1 (stereo partly drawn) [Example 346, (6S)-6-methyl-3-[2-oxo-5-(4-pyridyl)oxazolidin-3-yl]-N-(3,4,5-trifluorophenyl)-6,7-dihydro-4H-pyrazolo[1,5-a]pyrazine-5-carboxamide]
EC50: 12 nM

C[C@H]1Cn2ncc(N3CC(c4cocn4)OC3=O)c2CN1C(=O)Nc1cc(F)c(F)c(F)c1 (stereo partly drawn) [Example 348, (6S)-6-methyl-3-(5-oxazol-4-yl-2-oxo-oxazolidin-3-yl)-N-(3,4,5-trifluorophenyl)-6,7-dihydro-4H-pyrazolo[1,5-a]pyrazine-5-carboxamide]
EC50: 94 nM

Cc1ncc(C2CC(=O)N(c3cnn4c3CN(C(=O)Nc3cc(F)c(F)c(F)c3)[C@@H](C)C4)C2)o1 (stereo partly drawn) [Example 349, (6S)-6-methyl-3-[4-(2-methyloxazol-5-yl)-2-oxo-pyrrolidin-1-yl]-N-(3,4,5-trifluorophenyl)-6,7-dihydro-4H-pyrazolo[1,5-a]pyrazine-5-carboxamide]
EC50: 15 nM
